Reference: patent US6537744B1, “Use of biomarkers in saliva to evaluate the toxicity of agents and the function of tissues in both biomedical and environmental applications” (priority 1995, dated 2003)

Molecular target: saliva enzymes (esterase activity)
Experiment: Inhibition of saliva enzymes (esterase activity) for detection of chemicals in water
Type: biochemical, human
Protocol: The presence of chemicals in milk, water, urine and other biological fluids are detected using saliva enzymes. The detection limit for the chemicals depends on the chemical potency and the number of chemicals present in the sample. The data presented here using saliva enzymes indicates a remarkably low concentration of des N-isofenphos (DNIO) in water (3 ng/mL) is detectable using the saliva enzyme method. A 50% inhibition of esterase activity is produced at 3 ng/mL DNIO. In this procedure, the sample is passed through […] solid phase absorption column (C-18) to extract and concentrate the chemicals as described by Knaak et al. (1993). The retention of the chemicals on C-18 column depends on their lipid solubility. The non-polar compounds usually have the highest retention. Then, the chemical is eluted with 1 mL of alcohol. A 0.1 mL of the elute is tested for the inhibition of saliva enzymes as described in this application. Toxicants in solid environmental samples, fruit and vegetables can be extracted with water or proper solvent. Samples of the extract are tested for enzymes inhibition. The inhibition of saliva enzyme indicates the presence of toxicant(s) in the sample and further analysis is needed to identify the specific chemical(s).

CCOP(N)(=O)Oc1ccccc1C(=O)OC(C)C (stereo not shown) [DNIO, des N-Isofenphos-oxon]
concentration producing 50% inhibition of esterase activity: 3 ng/mL
